Test results taken from US5227487A, “Certain tricyclic and pentacyclic-hetero nitrogen rhodol dyes” (Molecular Probes, Inc., priority 1990, dated 1993).
Several values for one entry are separate records, joined by “and”; a condition that tells them apart may be missing. Identical values can stand only once.

Legend:
[1] = Absorption spectra and extinction coefficients of rhodol dyes; type: physicochemical; conditions: aqueous 50 mM phosphate buffer at pH 8.0-9.0
Procedure: Stock solutions were prepared by accurately weighting and dissolving 5-10 mg samples of the compounds in 50 mM potassium phosphate buffer at pH 8.0. Absorbance solutions were prepared by further diluting the stock solution with 50 mM potassium phosphate buffer at pH 8.0.

[2] = Fluorescence emission spectra of rhodol dyes (uncorrected); type: physicochemical
Procedure: Uncorrected fluorescence data was obtained on a Perkin-Elmer Model 650-40 Fluorescence Spectrophotometer equipped with a Perkin-Elmer/Hitachi 057 X-Y recorder using a ten- to twentyfold dilution of the absorbance solutions. Fluorescence of the rhodol dyes was determined for the reactive dyes and for their conjugates with model compounds by dissolving the dye at a concentration above 1×10^-8 M in an appropriate solvent such as water, methanol or chloroform, followed by measurement of the fluorescence in a suitable instrument, such as a fluorescence spectrometer or fluorescence microscope.

[3] = Quantum yield relative to fluorescein; type: physicochemical; conditions: aqueous 50 mM phosphate buffer at pH 8.0-9.0; uncorrected
Procedure: (§1) An estimate of the quantum yield of the dyes relative to fluorescein (quantum yield=0.92 in 0.01M sodium hydroxide) was obtained by integrating the emission spectrum of the dye excited at the same wavelength and optical density as the standard. Approximate photostabilities of the rhodol derivatives, relative to fluorescein, were determined by measuring the time dependent decrease in fluorescence intensity, during continuous illumination, of equimolar solutions of the rhodol dyes and fluorescein.

[4] = pKa / pH dependence of absorption and emission; type: physicochemical
Procedure: | ^c In aqueous 50 mM phosphate buffer

[5] = Photobleaching / photostability relative to fluorescein; type: physicochemical; conditions: continuous illumination; equimolar solutions; 50 mM potassium phosphate pH 8.0 (FIG. 3)
Procedure: as §1

[6] = Absorption spectra and extinction coefficients of rhodol dyes; type: physicochemical; conditions: in methanol
[7] = background, cited from earlier work
[8] = cited from earlier work
[9] = background; cited from earlier work
[10] = background; cited from earlier work; remark: listed apart in the source
[11] = aqueous 50 mM phosphate buffer at pH 8.0-9.0

Row | Compound | Abs Max [1] [nm] | ε (extinction coefficient) [1] [M⁻¹ cm⁻¹] | Em Max [2, 11] [nm] | QY (quantum yield) [3] | Em Max ([2]; in methanol) [nm] | Abs Max [6] [nm] | further results
1 | 5(and -6)-carboxy-3'-hydroxy-6'-amino-spiro[isobenzofuran-1(3H,9'-[9H]xanthen-3- one [Compound 1] | 492 | 59900 | 517 | 0.81 | – | – | pKa ([4]; aqueous 50 mM phosphate buffer): 5.59; pH dependence of absorption and emission ([4]; aqueous solution, between pH 6 and 10, compared with fluorescein (FIG. 4)): less significant pH dependence; photostability / rate of photobleaching relative to fluorescein [5]: superior photostability
2 | 5-(and -6)-carboxy-2',7'-dimethyl-3'-hydroxy-6'-N-ethylamino-spiro[isobenzofuran- 1(3H),9'-[9H]xanthen-3-one [Compound 12] | 510 | 54800 | 535 | 0.81 | – | – | pKa ([4]; aqueous 50 mM phosphate buffer): 5.82
3 | CCNc1cc2oc3cc(=O)c(CCC(=O)O)cc-3c(-c3ccccc3C(=O)O)c2cc1C [Compound 17] | 510 | 79400 | 534 | 0.65 | – | – | pKa ([4]; 50 mm phosphate buffer): 5.91
4 | O=C(O)c1ccc(C(=O)O)c(-c2c3cc(Cl)c(=O)cc-3oc3cc4c(cc23)CCCN4)c1 [Compound 24, 5-(and-6)-carboxy-2'-chloro-3'-hydroxy-1,2,3,4tetrahydropyridino[5,6-i]-spiro[isobenzofuran-1(3H),9'-[9H]xanthen-3-one] | 524 | – | 546 | 0.37 | – | – | pKa ([4]; 50 mm phosphate buffer): 4.50
5 | O=C(O)c1ccc(C(=O)O)c(-c2c3cc(Cl)c(=O)cc-3oc3c4c5c(cc23)CCCN5CCC4)c1 [Compound 28] | 547 | 74500 | 572 | 0.31 | – | – | pKa ([4]; 50 mm phosphate buffer): 5.11
6 | NCCCCCNC(=O)c1ccc(C(=O)O)c(-c2c3cc(Cl)c(=O)cc-3oc3c4c5c(cc23)CCCN5CCC4)c1 [Compound 30] | – | 57300 | – | – | 567 | 541 | –
7 | NCCNC(=O)c1ccc(C(=O)O)c(-c2c3cc(Cl)c(=O)cc-3oc3c4c5c(cc23)CCCN5CCC4)c1 [Compound 31] | – | – | – | – | 568 | 540 | –
8 | CCCCCCCCCCCCCCCCc1cc2c(-c3cc(C(=O)O)ccc3C(=O)O)c3cc4c5c(c3oc-2cc1=O)CCCN5CCC4 [Compound 34] | 547 | – | 572 | – | 562 | 531 | ε (extinction coefficient) [6]: 84400 M⁻¹ cm⁻¹
9 | O=C(O)CCc1cc2c(cc1O)Oc1c(cc3c4c1CCCN4CCC3)C21OC(=O)c2ccccc21 (stereo not drawn) [Compound 39, 3'-hydroxy-2,3,6,7-tetrahydro-1H, 5H-quinolizino[1,9-hi]-spiro[isobenzofuran-1(3H),9'-[9H]xanthen-3-one-2'-(3-propionic acid)] | 541 | 58200 | 562 | 0.41 | – | – | pKa ([4]; 50 mm phosphate buffer): 6.63
10 | C=CC(=O)NCCCCCNC(=O)CCc1cc2c(-c3ccccc3C(=O)O)c3cc4c5c(c3oc-2cc1=O)CCCN5CCC4 [Compound 42] | 544 | – | 571 | – | – | – | –
11 | [N-]=[N+]=Nc1ccc(C(=O)NCCCCCNC(=O)CCc2cc3c(cc2O)Oc2c(cc4c5c2CCCN5CCC4)C32OC(=O)c3ccccc32)cc1 (stereo not drawn) [Compound 43] | 545 | – | 572 | – | – | – | –
12 | O=C(CI)NCCCCCNC(=O)CCc1cc2c(-c3ccccc3C(=O)O)c3cc4c5c(c3oc-2cc1=O)CCCN5CCC4 [Compound 44] | 544 | – | 572 | – | – | – | –
13 | O=C(CCc1cc2c(-c3ccccc3C(=O)O)c3cc4c5c(c3oc-2cc1=O)CCCN5CCC4)NCCCCCNC(=O)CN1C(=O)C=CC1=O [Compound 45] | 544 | – | 573 | – | – | – | –
14 | NNC(=O)CCc1cc2c(-c3ccccc3C(=O)O)c3cc4c5c(c3oc-2cc1=O)CCCN5CCC4 [Compound 49] | 542 | – | 573 | – | – | – | –
15 | NCCCCCNC(=O)CCc1cc2c(cc1O)Oc1c(cc3c4c1CCCN4CCC3)C21OC(=O)c2ccccc21 (stereo not drawn) [Compound 50] | 543 | – | 572 | – | – | – | –
16 | O=c1cc2oc3c4c5c(cc3c(CCl)c-2cc1Cl)CCCN5CCC4 [Compound 51] | – | – | – | – | 578 | 563 | –
17 | CCc1cc2c(C(=O)O)c3cc4c5c(c3oc-2cc1=O)CCCN5CCC4 [Compound 52] | 558 | – | 603 | – | – | – | –
18 | O=C(O)CCc1cc2cc3cc4c5c(c3oc-2cc1=O)CCCN5CCC4 [Compound 54] | 538 | 69500 | 562 | 0.44 | 555 | 531 | ε (extinction coefficient) [6]: 81400 M⁻¹ cm⁻¹
19 | O=C(O)CCCCc1cc2cc3cc4c5c(c3oc-2cc1=O)CCCN5CCC4 [Compound 55] | 538 | 64100 | 562 | – | 556 | 532 | ε (extinction coefficient) [6]: 88700 M⁻¹ cm⁻¹
20 | O=C(O)CCCCCCCCCCCc1cc2cc3cc4c5c(c3oc-2cc1=O)CCCN5CCC4 [Compound 56] | – | – | – | – | 556 | 532 | ε (extinction coefficient) [6]: 84400 M⁻¹ cm⁻¹
21 | O=C(O)CCc1cc2c(C(F)(F)F)c3cc4c5c(c3oc-2cc1=O)CCCN5CCC4 [Compound 57] | 602 | – | 635 | – | 633 | 593 | –
22 | N#Cc1c2cc(CCC(=O)O)c(=O)cc-2oc2c3c4c(cc12)CCCN4CCC3 [Compound 58] | 640 | – | 664 | – | – | – | –
23 | O=C1OC2(c3ccc(O)cc3Oc3cc(O)ccc32)c2ccccc21 [Fluorescein] | 490 | 75000 | 514 | 0.92 | – | – | pKa ([4]; aqueous 50 mM phosphate buffer): 6.4; absorption intensity at 514 nm relative to maximum at 492 nm ([7]; 514 nm): less than 10%; absorptivity at peak ([7]; at absorption peak): 75,000 cm^-1 M^-1; absorption maximum [7]: 492 nm and ~490 nm; quantum yield of the standard ([8]; in 0.01M sodium hydroxide): 0.92; pH sensitivity [9]: pH dependent absorption spectrum
24 | CN(C)c1ccc2c(-c3ccccc3C(=O)[O-])c3ccc(N(C)C)cc3[o+]c2c1 [Tetramethylrhodamine] | – | – | – | – | – | – | quantum yield in alcohol ([8]; background, in alcohol): above 0.90; quantum yield in water ([8]; background, in water): approximately 0.23; pH sensitivity [9]: pH insensitive; photostability [10]: relatively photostable
25 | Carboxyfluorescein [reference compound] | 491 | 75000 | 514 | 0.78 | – | – | pKa ([4]; 50 mm phosphate buffer): 6.4
26 | Carboxytetramethylrhodamine [reference compound] | 547 | 77000 | 574 | 0.23 | – | – | –
